This passage reports Cross reactivity and Digoxin-like immunoreactive material results from patent EP0671924B1, “DIGITALIS-LIKE COMPOUNDS” (YISSUM RESEARCH DEVELOPMENT COMPANY OF THE HEBREW …, priority 1992, dated 1994).

Structures are written as SMILES.

In the assay the test system is digoxin antibody. Type of assay: binding. The method, then: Measurement of digoxin-like immunoreactivity: Radioimmunoassay was performed with digoxin RIA kit obtained from Amersham International (Amersham, Buckinghamshire, England). Assay conditions were as recommended by the manufacturer.
Digoxin radioimmunoassay was performed using commercially available kit. The concentration of the partially purified lens DLC was determined from its ability to inhibit [^3H]-ouabain binding assuming identical affinity to the ouabain receptor as ouabain and MW of 372.
Regarding `C[C@H]1O[C@@H](O[C@H]2[C@@H](O)C[C@H](O[C@H]3[C@@H](O)C[C@H](O[C@H]4CC[C@@]5(C)[C@H](CC[C@@H]6[C@@H]5C[C@@H](O)[C@]5(C)[C@@H](C7=CC(=O)OC7)CC[C@]65O)C4)O[C@@H]3C)O[C@@H]2C)C[C@H](O)[C@@H]1O` [Digoxin], the Cross reactivity is 100% and the Digoxin-like immunoreactive material is recorded as 10,000 ng/ml.

`C[C@@H]1O[C@@H](O[C@H]2C[C@@H](O)[C@]3(CO)[C@H]4[C@H](O)C[C@]5(C)[C@@H](C6=CC(=O)OC6)CC[C@]5(O)[C@@H]4CC[C@]3(O)C2)[C@H](O)[C@H](O)[C@H]1O` [Ouabain] had a Cross reactivity of 0.012% and a Digoxin-like immunoreactive material of 1.21 ng/mL.

Regarding `C[C@]12CC[C@H](O)C[C@H]1CC[C@@H]1[C@@H]2CC[C@]2(C)[C@@H](c3ccc(=O)oc3)CC[C@]12O` [Bufalin], the Cross reactivity is 0.045% and the Digoxin-like immunoreactive material came out at 4.53 ng/mL.
